Data on two molecules can be found in patent publication US5498522A, “Methods for the use of spermidine/spermine N^1 -acetyltransferase as a prognostic indicator and/or a tumor response marker” (priority 1993, dated 1996).

One series relates to human tumor xenografts. The series is described as follows: antitumor efficacy in-vivo (general statement). Conditions: compared to other bis-ethyl spermine analogs.
Series [1] has as its system LOX human melanoma xenografts. The series is described as follows: antitumor response against LOX human melanoma xenografts in mice. It counts as in vivo. As for the experimental part: (§1) […] where 1 represents length; w--width; and h--height. Tumor sizes were monitored 2 times/week until the median volume (V=0.4(a^2 ×b) where a is the smaller of the two perpendicular tumor diameters). As an indication of drug toxicity, animal weights were also recorded at the time of tumor volume measurement. Statistical analyses were performed on mouse tumor size and weight parameters by using the Mann-Whitney test.
(§2) Tumor growth suppression was measured by plotting the mean tumor volume versus the number of days post-inoculation with polyamine analog (growth curve analyses). Suppression is determined by comparison with the growth of untreated tumors (%T/C). More specifically,: %T/C is (treated tumor volume minus pretreatment volume) divided by (control tumor volume minus pretreatment volume)×100. Typically this is measured either when the control tumor volume reaches 1000 mm^3, or at the last day of treatment.
(§3) Tumor regression is measured as a percentage representing the average percentage of decrease in tumor volume from the largest pretreatment volume value.
(§4) Repression of regrowth is represented as regrowth delay, determined as the number of days following cessation of treatment when median group tumor volume exceeds 200 mm^3 (an arbitrary indication of regrowth which was determined statistically).
For example, SSAT activity and potency of antitumor response was examined for LOX and MALME-3 melanoma xenografts in mice. Mice developing palpable tumors of a similar size were divided into different treatment groups comprising 7 mice per treatment group, and 7 control mice per treatment group. The treated mice received 40 mg/kg of BENSPM administered every 8 hours for a 5 day period. Melanoma tumor cells comprising the human xenografts were removed from two mice of each group at 16 hours following the final BENSPM injection to evaluate the level of induction of SSAT activity. The antitumor response from polyamine analog therapy was assessed in the five remaining mice from each group by monitoring the tumor volume of the xenografts over days following treatment as compared to untreated xenografts.
(§5) For example, human melanoma cell lines including MALME-3, SH-1, PANUT-3 and LOX were evaluated for the level of SSAT induction and potency of antitumor response following BENSPM treatment (80 mg/kg 3×/day×6 days) using the methodology previously described in this embodiment. […] The baseline of SSAT activity in the control mice (2 examined of 7 mice) ranged from 50 to 90 pmol/min/mg. […] Note that following BENSPM treatment (as discussed above in the context of Tables 4 and 5), suppression of tumor growth of PANUT-3, unlike suppression of MALME-3 growth, lasted for only about 12 days. Further, the levels of SSAT in PANUT-3 at two weeks post-treatment, approached the levels in the control and correlated with the loss of antitumor activity.
A general note: Xenograft models place foreign cells or tissue in a host animal.

Series [2] relates to human melanoma xenografts. The series is described as follows: antitumor response, human melanoma xenografts, dose comparison and general. It counts as in vivo. The settings on record: MALME-3, SH-1, PANUT-3, LOX. The procedure: The in-vivo antitumor activities of BESPM, BEHSPM, and BENSPM, were compared against various human xenografts in nude athymic mice. Cultured human tumor cells were first passaged several times in female HSD nude athymic mice. Fragments of resultant tumor were implanted into mice via subcutaneous trocar implantation. Mice of different treatment groups were treated with one or more of the three bis-ethyl spermine analogs BESPM, BEHSPM, and BENSPM. Anti-proliferative activity was monitored by antitumor responses including tumor growth suppression, tumor regression, or repression of regrowth.
as §5

Series [3] deals with A549 lung adenocarcinoma xenografts. The series is described as follows: antitumor response against A549 lung adenocarcinoma xenografts in mice. The series is classed as in vivo, human. The procedure: as §1, §2, §3, §4
Cells from malignant solid human tumor tissue types, other than melanoma, have also been evaluated for their responsiveness to polyamine analog treatment including clonal cell lines A121 (human ovarian adenocarcinoma),A549 (lung adenocarcinoma), and HT29 colon adenocarcinoma). These cell lines were evaluated for the level of SSAT induction and potency of antitumor response following BENSPM treatment (80 mg/kg 3×/day×6 days) in-vivo using the methodology previously described in this embodiment. Also, dose of BENSPM was compared (80 mg/kg versus 40 mg/kg). The baseline of SSAT activity in the control mice (2 of 7 mice) ranged from 40 to 90 pmol/min/mg. Tumor cells from the human xenografts A121, A549, and HT29 were removed from two mice of each treated group of seven mice containing the respective xenograft at 16 hours following the final BENSPM injection to evaluate the level of induction of SSAT activity. […] The response to the polyamine analog was heterotypic. […] As discussed previously, it is not known whether the heterotypic antitumor response may be due to either the individual properties of the clonal line or the particular solid tumor type.

Series [4] deals with S-adenosylmethionine decarboxylase (SAMDC). Description: SAMDC activity in human melanoma xenografts in-vivo.
Series [5] relates to polyamine pools of melanoma tumor. The series is described as follows: polyamine pools in human melanoma xenografts in-vivo. Conditions: for polyamine pools: 16 hours after final injection.
Series [6] can be described thus: BENSPM (analog) pools in tumor and host tissue. It counts as in vivo, mouse. More on the design: BENSPM pool (tissue content): unit not given here.
The test system of the next series is cell growth. The settings on record: in-vitro; cited from earlier work.
In a further series the test system is polyamine uptake. Conditions: cited from earlier work.
Another series deals with LOX melanoma cells. Description: N^1 -acetylspermidine in LOX cell cultures. The series is classed as cell-based, human. Conditions: 10 μm BESPM, 48 hours. As for the experimental part:
To illustrate this embodiment, LOX and MALME-3 cell cultures were treated for 48 hours with 10 μm BESPM. The cells from each culture were harvested and assayed for SSAT activity. Media samples were prepared by treating the samples with 50% trichloroacetic acid to give a final concentration of 10% and then centrifuged at 15,000×g for 10 minutes. The supernatant was then filtered through a 0.22-μm filter, extracted with several volumes of ether, lyophilized, and resuspended in 10% trichloroacetic acid. N^1 -acetylspermidine levels of cells and media samples were then measured by use of high-pressure liquid chromatography. […] Similarly, N^1 -acetylspermidine levels from MALME-3 control cells, media from control cell cultures, and treated MALME-3 cells contained minimal levels of N^1 -acetylspermidine.

The mark [7] stands for this setting: A549, BENSPM 80 mg/kg 3x/d × 6d.
Setting [8] is: A549 xenograft, 80 mg/kg 3×/day×6 days.
The mark [9] stands for this setting: MALME-3 tumor, 40 mg/kg 3x/day 6 days, 16 hrs post-treatment.
The mark [10] stands for this setting: MALME-3 tumor, 40 mg/kg, 2 wks post-treatment.

Structures are written as SMILES. “Also recorded” adds a separate entry of the source.

`CCNCCCNCCCNCCCNCC` [BENSPM, N^1,N^11 -bis(ethyl)norspermine]: the “antitumor efficacy / activity, relative” value in the series with human tumor xenografts is listed as “most potent antitumor efficacy; also recorded: most potent antitumor activity”. Further, in series [1] (LOX xenograft, 40 mg/kg every 8 hours for 5 days), the “tumor regression, regrowth delay, lack of regrowth (FIG. 6)” value is listed as “no significant tumor regression, regrowth delay, nor lack of regrowth”. Besides, the “% T/C at 1 g” value is on record as 40% in series [1] (LOX, BENSPM at 80 mg/kg) and 13% in [3] (setting [7]). Moreover, the “Tumor Regression” value is “None” in [1] (LOX, BENSPM at 80 mg/kg); “no measurable tumor regression and None” in series [3] (setting [7]). In addition, the “Regrowth Delay” value in series [1] (LOX, BENSPM at 80 mg/kg, dt 5 days) is “None”; in [3] (A549, BENSPM 80 mg/kg 3x/d × 6d, dt 10 days), 8.5 × dt. Further, the “No Regrowth” value in series [1] (LOX, BENSPM at 80 mg/kg, for duration of experiment) is 0/5; in series [3] (A549, BENSPM 80 mg/kg 3x/d × 6d, for duration of experiment), 2/5. Moreover, the “antitumor response at 40 mg/kg versus 80 mg/kg” value in series [2] is listed as “very similar to the response at 80 mg/kg”. For the same molecule, the “growth suppression after cessation of treatment” value in series [3] (setting [8]) is 85 days. In addition, the tumor regrowth result in series [3] (setting [8]) is reported as “minimal tumor regrowth”. Moreover, the “SAMDC levels” value in series [4] (MALME-3 study) is “ODC and SAMDC levels were not suppressed”; in [4] (PANUT-3 study), “ODC and SAMDC levels were not suppressed”. Besides, the PUT pool in [5] (setting [9]) is reported as 20/20; in series [5] (setting [10]), 370/290. The SPD pool in series [5] (setting [9]) is on record as 50/20; in [5] (setting [10]), 560/160. The SPM pool in [5] (setting [9]) is 40/30; in series [5] (setting [10]), 200/80. In addition, the N-acetylspermidine level in [5] (setting [10]) is given as 240/180. In addition, the polyamine pools result in [5] (MALME-3 tumor) and in series [5] (PANUT-3 tumor) was “almost totally depleted” each time. Further, the “BENSPM pool (tissue content)” value in series [6] (setting [9]) is given as 1020/1535; in [6] (setting [10]) it was 620/470; in [6] (kidney, 40 mg/kg, 2 wks post-treatment) it was 90/150; in series [6] (kidney, 40 mg/kg, 16 hrs post-treatment), 860/1705; in series [6] (liver, 40 mg/kg, 2 wks post-treatment), 40/40; in series [6] (liver, 40 mg/kg, 16 hrs post-treatment), 1180/1470. Moreover, in series [6] (tumor, kidney and liver, 40 mg/kg, 16 hrs post-treatment), the “metabolite peak of BENSPM” value was “a peak which was similar in height to the SPM peak”.
Regarding `CCNCCCNCCCCNCCCNCC` [BESPM, N^1,N^12-bis(ethyl)spermine], the “concentration inhibiting cell growth” value in the series on cell growth was 1 to 10 µM. Besides, the polyamine uptake result in the series with polyamine uptake is reported as “suppresses polyamine uptake”. For the same molecule, in the series with LOX melanoma cells, the “N^1 -acetylspermidine Extracellular” value is listed as < 0.1 nmol/culture and the “N^1 -acetylspermidine Intracellular” value is < 0.1 nmol/culture.
